Laboratory results as given in patent US20190069542A1, “COMPOSITIONS AND METHODS FOR REPELLING AND KILLING TICKS AND DETACHMENT OF FEEDING TICKS” (EVOLVA SA, priority 2016, published 2019).
Several values for one entry are separate records, joined by “and”; a condition that tells them apart may be missing. Identical values can stand only once.

Legend:
ticks = assay: Shell-vial bioassay of morbidity and mortality of ticks; assay type: in vivo; details: for LC50: calculated at 24 hours from Table No. 7
Protocol: Next, a shell-vial bioassay was performed to determine whether the nootkatone of the test products (i.e., space spray, lotion, and soap) lost biocidal activity due to the formulation process. The nootkatone derivatives from Example No. 1 were also tested to determine relative biocidal activity. Serial dilutions of each 2% product and nootkatone derivatives were made for a total of 8 concentrations per formulation/derivative. Controls included untreated controls and a nootkatone in acetone composition as a positive control. One hundred and fifty microliters of each concentration was added to a 1 dram glass shell vial and allowed to dry (see FIGS. 3A and 3B).
Each shell vial with ticks added was placed in a humid container, and morbidity and mortality of ticks were determined at 1 hr and 24 hr post-treatment. Each experiment was performed twice and the results averaged. […]

[1] = Solvent dissolution tests of nootkatone; assay type: physicochemical; details: data not shown
Protocol: Initially, solvent dissolution tests of nootkatone were performed.

Row | SMILES | # Alive/10 (ticks; 0.002%, 1 hr) | # Alive/10 (ticks; 0.002%, 24 hr) | # Alive/10 (ticks; 0.004%, 1 hr) | # Alive/10 (ticks; 0.004%, 24 hr) | # Alive/10 (ticks; 0.008%, 1 hr) | # Alive/10 (ticks; 0.008%, 24 hr) | # Alive/10 (ticks; 0.016%, 1 hr) | # Alive/10 (ticks; 0.016%, 24 hr) | # Alive/10 (ticks; 0.031%, 1 hr) | # Alive/10 (ticks; 0.031%, 24 hr) | # Alive/10 (ticks; 0.063%, 1 hr) | # Alive/10 (ticks; 0.063%, 24 hr) | # Alive/10 (ticks; 0.125%, 1 hr) | # Alive/10 (ticks; 0.125%, 24 hr) | # Alive/10 (ticks; 0.25%, 1 hr) | # Alive/10 (ticks; 0.25%, 24 hr) | LC50 (ticks) | also measured
1 | C=C(C)[C@@H]1CCC2CC(=O)C[C@@H](C)[C@]2(C)C1 (stereo partly shown) [1,10 dihydronootkatone, 1,10-dihydronootkatone] | 10 | 9 | 10 | 10 | 10 | 6 | 10 | 6 | 10 | 3 | 10 | 1 | 10 | 2 | 10 | 1 | 0.0097% | –
2 | CC(C)C1CCC2=CC(=O)CC(C)C2(C)C1 (stereo not shown) [11,12 dihydronootkatone, 11,12-dihydronootkatone] | 10 | 6 | 10 | 7 | 10 | 1 | 10 | 0 | 10 | 0 | 10 | 0 | 2 | 0 | 2 | 0 | 0.0071% | –
3 | C=C(C)[C@@H]1CCC2=CC(=O)C[C@@H](C)[C@]2(C)C1 [Nootkatone, nootkatone] | – | – | – | – | – | – | – | – | – | – | – | – | – | – | 3 and 2 | 0 | – | # Alive/10 (ticks; 0.01%, 1 hr): 7 and 5; # Alive/10 (ticks; 0.01%, 24 hr): 5 and 7; # Alive/10 (ticks; 0.02%, 1 hr): 5; # Alive/10 (ticks; 0.02%, 24 hr): 0; # Alive/10 (ticks; 0.03%, 1 hr): 4; # Alive/10 (ticks; 0.03%, 24 hr): 0; # Alive/10 (ticks; 0.06%, 1 hr): 4; # Alive/10 (ticks; 0.06%, 24 hr): 0; # Alive/10 (ticks; 0.13%, 1 hr): 4; # Alive/10 (ticks; 0.13%, 24 hr): 0; # Alive/10 (ticks; 0.5%, 24 hr): 0; LC50 (ticks; listed as Nootkatone control): 0.0074% and 0.0073%; dissolution of nootkatone in solvent ([1]; glycerin): unable to successfully dissolve; dissolution of nootkatone in solvent ([1]; water): unable to successfully dissolve
4 | CC(C)[C@@H]1CCC2CC(=O)C[C@@H](C)[C@]2(C)C1 (stereo partly shown) [Tetrahydronootkatone, tetrahydronootkatone] | 10 | 10 | 10 | 10 | 9 | 9 | 7 | 7 | 7 | 7 | 6 | 5 | 6 | 4 | 5 | 1 | 0.0780% | –
